Legend:
LCK = LCK (Homo sapiens (Human), UniProt P06239); experiment: kinase binding screen (affinity beads, qPCR readout) at 1000 nM; settings: read-out: % Inhibition @ 1000 nM
FGR = FGR (Homo sapiens (Human), UniProt P09769); experiment: as above; settings: read-out: % Inhibition @ 1000 nM
BLK = BLK (Homo sapiens (Human), UniProt P51451); experiment: as above; settings: read-out: % Inhibition @ 1000 nM
LYN = LYN (Homo sapiens (Human), UniProt P07948); experiment: as above; settings: read-out: % Inhibition @ 1000 nM
YES = YES (Homo sapiens (Human), UniProt P07947); experiment: as above; settings: read-out: % Inhibition @ 1000 nM
FYN = FYN (Homo sapiens (Human), UniProt P06241); experiment: as above; settings: read-out: % Inhibition @ 1000 nM
HCK = HCK (Homo sapiens (Human), UniProt P08631); experiment: as above; settings: read-out: % Inhibition @ 1000 nM
SRC = SRC (Homo sapiens (Human), UniProt P12931); experiment: as above
EGFR = EGFR (Homo sapiens (Human), UniProt P00533); experiment: as above; settings: read-out: % Inhibition @ 1000 nM
BTK [1] = biological target: T1, BTK (Homo sapiens (Human), UniProt Q06187); experiment: ADP-Glo Kinase biochemical assay, IC50 determination of BTK inhibitors; settings: head-to-head assays
Protocol: Biological Properties: IC50 Determination of BTK Inhibitors in ADP-Glo Kinase Biochemical Assay
• Enzyme concentration: 8 ng/5 ul. • ATP concentration: 50 uM • Substrate (peptide) concentration: 0.2 mg/ml. • Reaction buffer composition: 40 mM Tris-HCl pH7.5, 10 mM MgCl2, 2 mM MnCl2, 0.1 mg/mL BSA, 0.05 mM DTT. • Test compound concentration: DMSO≤0.5%. Methods: Compound Dosage Gradient Solution Preparation: […]
1× and 2× assay buffer were made at first. BTK kinase was diluted with 1× assay buffer but substrate was diluted with 2× assay buffer. 1 ul of diluted compound was transferred into 384-well assay plate, and then 2.0 ul of enzyme solution was added, and spun at 2000 rpm for 1 min. This mixture was incubated at 24° C. for 30 mins. 2 ul of peptide substrate/ATP mixture was added into the assay plate to start the reaction. The mixture was mixed thoroughly and then the 384-well plate was spun and incubated at 24° C. for 60 mins. 5.0 ul of ADP-Glo Reagent was added to stop the kinase activity and deplete the ATP unconsumed, and the plate was mixed thoroughly and incubated at 24° C. for 40 min. Then, 10.0 ul of Kinase Detection reagent was added, and the plate was centrifuged and then kept at 24° C. for 30 min. The luminescence signal was read on Envision. […]
All data was analyzed with IDBS XLfit5 software (ID Business Solutions Ltd., UK).

BTK [2] = biological target: T1, BTK; experiment: kinase binding screen (affinity beads, qPCR readout) at 1000 nM

T1 sequence (Q06187 whole entry): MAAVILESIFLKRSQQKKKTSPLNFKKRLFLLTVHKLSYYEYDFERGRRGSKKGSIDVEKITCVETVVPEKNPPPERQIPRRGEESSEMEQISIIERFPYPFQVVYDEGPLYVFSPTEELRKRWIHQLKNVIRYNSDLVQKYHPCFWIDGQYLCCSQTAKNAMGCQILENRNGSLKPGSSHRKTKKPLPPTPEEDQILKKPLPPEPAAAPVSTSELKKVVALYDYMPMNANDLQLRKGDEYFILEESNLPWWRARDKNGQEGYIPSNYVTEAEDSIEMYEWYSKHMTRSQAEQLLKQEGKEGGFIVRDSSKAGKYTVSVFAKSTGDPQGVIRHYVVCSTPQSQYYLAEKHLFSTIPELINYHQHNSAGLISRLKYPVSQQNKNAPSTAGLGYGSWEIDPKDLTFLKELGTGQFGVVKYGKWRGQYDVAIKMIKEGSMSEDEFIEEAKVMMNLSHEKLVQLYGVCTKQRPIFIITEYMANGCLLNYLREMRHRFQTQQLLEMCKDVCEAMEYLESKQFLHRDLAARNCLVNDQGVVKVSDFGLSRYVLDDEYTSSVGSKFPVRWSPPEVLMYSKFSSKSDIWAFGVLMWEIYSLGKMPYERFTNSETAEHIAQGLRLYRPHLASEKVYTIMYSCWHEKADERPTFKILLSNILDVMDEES
SRC, sequence (P12931 whole entry, looked up): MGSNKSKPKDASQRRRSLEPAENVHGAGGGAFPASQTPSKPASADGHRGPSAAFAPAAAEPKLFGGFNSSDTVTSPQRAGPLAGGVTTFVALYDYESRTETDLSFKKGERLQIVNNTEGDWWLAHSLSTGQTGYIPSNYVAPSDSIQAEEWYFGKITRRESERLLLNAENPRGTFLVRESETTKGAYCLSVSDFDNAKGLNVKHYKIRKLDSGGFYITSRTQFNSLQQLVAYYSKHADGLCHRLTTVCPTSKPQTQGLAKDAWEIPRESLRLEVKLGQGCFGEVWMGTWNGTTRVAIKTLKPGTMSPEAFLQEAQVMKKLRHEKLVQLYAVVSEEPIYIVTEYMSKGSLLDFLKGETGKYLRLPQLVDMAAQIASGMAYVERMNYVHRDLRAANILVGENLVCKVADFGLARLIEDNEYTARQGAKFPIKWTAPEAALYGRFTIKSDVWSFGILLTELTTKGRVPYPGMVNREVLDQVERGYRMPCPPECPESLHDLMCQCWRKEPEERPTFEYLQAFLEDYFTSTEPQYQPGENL
HCK, sequence (P08631 whole entry): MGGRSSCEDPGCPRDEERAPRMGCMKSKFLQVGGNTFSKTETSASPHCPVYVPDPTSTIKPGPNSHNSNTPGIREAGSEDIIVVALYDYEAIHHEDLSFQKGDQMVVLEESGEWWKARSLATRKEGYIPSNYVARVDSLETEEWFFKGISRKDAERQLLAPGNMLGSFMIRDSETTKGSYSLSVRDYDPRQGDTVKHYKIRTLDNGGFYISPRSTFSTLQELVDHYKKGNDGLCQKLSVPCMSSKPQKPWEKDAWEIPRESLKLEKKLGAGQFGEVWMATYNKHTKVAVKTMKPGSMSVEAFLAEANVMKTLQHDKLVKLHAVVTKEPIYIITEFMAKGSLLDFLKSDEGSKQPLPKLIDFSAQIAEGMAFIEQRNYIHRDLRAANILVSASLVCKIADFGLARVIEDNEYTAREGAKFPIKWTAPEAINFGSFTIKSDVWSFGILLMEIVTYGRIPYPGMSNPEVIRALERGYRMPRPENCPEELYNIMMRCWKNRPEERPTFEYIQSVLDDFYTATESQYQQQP
FYN, sequence (P06241 whole entry): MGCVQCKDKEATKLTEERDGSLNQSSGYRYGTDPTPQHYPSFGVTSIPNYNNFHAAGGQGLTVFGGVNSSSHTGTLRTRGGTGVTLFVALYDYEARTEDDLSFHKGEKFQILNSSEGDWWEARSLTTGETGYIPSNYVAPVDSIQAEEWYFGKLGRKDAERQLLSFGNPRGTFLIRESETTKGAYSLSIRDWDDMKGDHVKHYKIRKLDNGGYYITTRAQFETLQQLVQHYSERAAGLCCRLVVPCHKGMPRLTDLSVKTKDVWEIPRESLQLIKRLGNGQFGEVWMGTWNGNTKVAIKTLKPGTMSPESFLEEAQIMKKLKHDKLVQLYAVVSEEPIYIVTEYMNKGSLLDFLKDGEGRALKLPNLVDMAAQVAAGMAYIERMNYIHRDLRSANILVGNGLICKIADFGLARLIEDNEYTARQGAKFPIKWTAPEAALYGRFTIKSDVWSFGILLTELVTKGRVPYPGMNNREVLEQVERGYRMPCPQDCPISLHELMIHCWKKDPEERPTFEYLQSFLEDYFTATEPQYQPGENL
BLK, sequence (P51451 whole entry): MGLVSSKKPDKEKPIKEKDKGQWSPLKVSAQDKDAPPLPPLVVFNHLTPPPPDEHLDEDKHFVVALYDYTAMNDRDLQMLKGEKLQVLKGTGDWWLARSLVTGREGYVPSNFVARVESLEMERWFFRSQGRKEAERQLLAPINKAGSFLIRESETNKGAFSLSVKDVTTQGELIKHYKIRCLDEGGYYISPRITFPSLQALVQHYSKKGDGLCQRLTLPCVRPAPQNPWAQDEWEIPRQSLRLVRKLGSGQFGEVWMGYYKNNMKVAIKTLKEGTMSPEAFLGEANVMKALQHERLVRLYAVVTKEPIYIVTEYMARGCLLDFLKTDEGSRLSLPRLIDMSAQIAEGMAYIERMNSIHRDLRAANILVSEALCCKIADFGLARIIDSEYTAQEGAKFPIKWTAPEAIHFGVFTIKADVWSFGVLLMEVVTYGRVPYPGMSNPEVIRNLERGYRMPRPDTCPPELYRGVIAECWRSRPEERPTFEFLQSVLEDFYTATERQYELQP
LYN, sequence (P07948 whole entry): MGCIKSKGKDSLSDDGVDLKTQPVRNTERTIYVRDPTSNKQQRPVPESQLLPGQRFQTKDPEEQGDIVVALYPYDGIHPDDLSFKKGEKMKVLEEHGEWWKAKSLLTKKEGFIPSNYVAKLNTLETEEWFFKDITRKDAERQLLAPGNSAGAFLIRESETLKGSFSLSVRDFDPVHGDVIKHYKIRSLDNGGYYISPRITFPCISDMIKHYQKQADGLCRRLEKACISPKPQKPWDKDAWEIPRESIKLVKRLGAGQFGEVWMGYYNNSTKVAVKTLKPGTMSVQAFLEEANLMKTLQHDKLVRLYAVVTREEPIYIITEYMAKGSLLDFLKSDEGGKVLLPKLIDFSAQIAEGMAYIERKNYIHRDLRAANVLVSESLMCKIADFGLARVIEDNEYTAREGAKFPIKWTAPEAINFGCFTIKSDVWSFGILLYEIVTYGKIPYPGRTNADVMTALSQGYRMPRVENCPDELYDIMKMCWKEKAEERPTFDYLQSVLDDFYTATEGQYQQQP
LCK, sequence (P06239 whole entry): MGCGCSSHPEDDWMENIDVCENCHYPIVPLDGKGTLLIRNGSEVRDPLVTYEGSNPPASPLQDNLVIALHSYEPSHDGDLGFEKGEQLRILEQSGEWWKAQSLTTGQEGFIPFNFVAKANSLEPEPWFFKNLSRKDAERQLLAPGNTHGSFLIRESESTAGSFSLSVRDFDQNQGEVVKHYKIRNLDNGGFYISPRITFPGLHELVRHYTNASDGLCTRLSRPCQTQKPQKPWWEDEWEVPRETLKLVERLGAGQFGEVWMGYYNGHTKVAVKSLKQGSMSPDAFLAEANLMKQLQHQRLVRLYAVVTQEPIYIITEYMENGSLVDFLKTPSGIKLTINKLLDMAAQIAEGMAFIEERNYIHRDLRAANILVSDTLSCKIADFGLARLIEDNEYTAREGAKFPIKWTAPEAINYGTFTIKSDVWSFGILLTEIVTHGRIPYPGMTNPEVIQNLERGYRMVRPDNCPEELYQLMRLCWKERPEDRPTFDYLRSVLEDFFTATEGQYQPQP
YES, sequence (P07947 whole entry): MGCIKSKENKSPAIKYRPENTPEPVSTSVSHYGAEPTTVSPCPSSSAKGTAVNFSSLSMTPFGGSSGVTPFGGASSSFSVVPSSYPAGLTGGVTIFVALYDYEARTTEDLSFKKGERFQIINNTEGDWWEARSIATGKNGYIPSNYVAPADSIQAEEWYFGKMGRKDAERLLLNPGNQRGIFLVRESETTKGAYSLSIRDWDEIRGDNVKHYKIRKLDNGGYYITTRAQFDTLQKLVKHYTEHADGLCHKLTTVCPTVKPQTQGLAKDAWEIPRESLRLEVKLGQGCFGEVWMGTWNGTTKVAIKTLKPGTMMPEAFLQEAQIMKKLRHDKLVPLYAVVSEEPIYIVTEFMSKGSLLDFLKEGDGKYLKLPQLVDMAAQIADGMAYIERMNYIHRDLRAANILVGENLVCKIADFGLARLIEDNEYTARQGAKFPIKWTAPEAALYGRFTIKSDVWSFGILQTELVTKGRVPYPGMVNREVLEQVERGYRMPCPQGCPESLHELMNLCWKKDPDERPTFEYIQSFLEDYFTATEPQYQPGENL
FGR, sequence (P09769 whole entry): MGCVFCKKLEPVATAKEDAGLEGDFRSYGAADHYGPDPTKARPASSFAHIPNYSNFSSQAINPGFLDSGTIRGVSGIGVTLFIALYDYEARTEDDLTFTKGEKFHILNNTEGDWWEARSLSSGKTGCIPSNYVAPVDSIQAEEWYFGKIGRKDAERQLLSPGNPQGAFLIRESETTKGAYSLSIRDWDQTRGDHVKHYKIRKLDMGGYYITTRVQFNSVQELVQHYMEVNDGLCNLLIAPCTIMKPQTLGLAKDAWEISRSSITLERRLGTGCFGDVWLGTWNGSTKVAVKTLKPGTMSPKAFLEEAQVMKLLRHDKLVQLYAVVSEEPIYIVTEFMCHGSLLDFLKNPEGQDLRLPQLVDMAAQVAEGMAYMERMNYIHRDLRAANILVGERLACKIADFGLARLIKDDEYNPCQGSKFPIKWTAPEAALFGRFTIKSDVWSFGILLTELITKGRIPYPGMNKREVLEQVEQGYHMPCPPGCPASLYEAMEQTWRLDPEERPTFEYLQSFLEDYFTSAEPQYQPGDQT

Row | Structure (SMILES) | inhibition at 1 µM (LCK) | inhibition at 1 µM (FGR) | inhibition at 1 µM (BLK) | inhibition at 1 µM (LYN) | inhibition at 1 µM (YES) | inhibition at 1 µM (FYN) | inhibition at 1 µM (HCK) | Fold Difference (SRC; BTK vs SRC) | inhibition at 1 µM (SRC; SRC, 1000 nM) | inhibition at 1 µM (EGFR) | IC50 (BTK [1]; unit not printed in Table 2, read-out: BTK in vitro potency) | improvement in potency over Analogs 1 and 2 (BTK [1]; in vitro BTK potency) | inhibition at 1 µM (BTK [2])
1 | C=CC(=O)N1CCC(c2ccc(C(N)=O)c(-c3ccc(Oc4ccccc4)cc3)n2)CC1 [Example 3, 6-(1-acryloylpiperidin-4-yl)-2-(4-phenoxyphenyl)nicotinamide] | 11% | 0% | 51% | 3% | 8% | 0% | 0% |  |  |  |  |  | 
2 | C=CC(=O)N1CCN(c2ccc(C(N)=O)c(-c3ccc(Oc4ccccc4)cc3)n2)CC1 [Example 5, 6-(4-acryloylpiperazin-1-yl)-2-(4-phenoxyphenyl)nicotinamide] | 0% | 0% | 46% | 7% | 6% | 5% | 21% | >100x | 33% | 23% | 4.7 nM | ~100 × | 99.7%
